Reference: the supplement of paper PMC4862054

Columns and labels:
Experiment in all cases: normalised response (% of control), CellTiter-Glo; higher = more viable cells (100 = DMSO, 0 = benzethonium chloride kill control)
Conditions in all cases: incubation time: 72 h
CAL-85-1 = test system: CAL-85-1
How it was run: (§1)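 A 20 µl suspension of breast cancer cells was seeded into each well of 384-well plates containing compound at 5 concentrations in 10-fold steps over a compound-specific 10,000-fold range. After 72 h incubation, CellTox Green fluorescence (485/520 nm) was read first, and CellTiter-Glo luminescence was read after 10 min at room temperature. Each plate was normalised against 0.1 % DMSO (100) and a positive kill control (0), and each value is the normalised signal at one concentration.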

HCC1937 = test system: HCC1937
How it was run: as §1

HCC1599 = test system: HCC1599
How it was run: as §1

CAL-51 = test system: CAL-51
How it was run: as §1

MDA-MB-436 = test system: MDA-MB-436
How it was run: as §1

MFM-223 = test system: MFM-223
How it was run: as §1

BT-549 = test system: BT-549
How it was run: as §1

CAL-148 = test system: CAL-148
How it was run: as §1

CAL-120 = test system: CAL-120
How it was run: as §1

SK-BR-3 = test system: SK-BR-3
How it was run: as §1

Hs578T = test system: Hs578T
How it was run: as §1

MCF-10A = test system: MCF-10A
How it was run: as §1

BT-474 = test system: BT-474
How it was run: as §1

MDA-MB-231 = test system: MDA-MB-231
How it was run: as §1

HDQ-P1 = test system: HDQ-P1
How it was run: as §1

DU-4475 = test system: DU-4475
How it was run: as §1

HCC1143 = test system: HCC1143
How it was run: as §1

MDA-MB-453 = test system: MDA-MB-453
How it was run: as §1

MDA-MB-468 = test system: MDA-MB-468
How it was run: as §1

SMILES	normalised response (CAL-85-1)	normalised response (HCC1937)	normalised response (HCC1599)	normalised response (CAL-51)	normalised response (MDA-MB-436)	normalised response (MFM-223)	normalised response (BT-549)	normalised response (CAL-148)	normalised response (CAL-120)	normalised response (SK-BR-3)	normalised response (Hs578T)	normalised response (MCF-10A)	normalised response (BT-474)	normalised response (MDA-MB-231)	normalised response (HDQ-P1)	normalised response (DU-4475)	normalised response (HCC1143)	normalised response (MDA-MB-453)	normalised response (MDA-MB-468)
CO[C@@]12[C@H](COC(N)=O)C3=C(C(=O)C(C)=C(N)C3=O)N1C[C@@H]1N[C@@H]12 [Mitomycin C] (10 nM)	96.5%	101%	82.3%	105%	91%	97.2%	98.3%	86.7%	96.9%	94.4%	98.7%	96.3%	92.7%	97%	96.7%	98.9%	96.3%	89%	92.8%
CC1(C)CCC(c2ccc(Cl)cc2)=C(CN2CCN(c3ccc(C(=O)NS(=O)(=O)c4ccc(N[C@H](CCN5CCOCC5)CSc5ccccc5)c(S(=O)(=O)C(F)(F)F)c4)cc3)CC2)C1 [Navitoclax] (10 nM)	97%	101%	103%	115%	98%	96.7%	99.5%	90%	91.7%	77.3%	99.7%	98.6%	94.5%	98.1%	87.5%	99.4%	95.9%	100%	87.6%
CCN(CC)CCCC(C)Nc1ccnc2cc(Cl)ccc12 (stereo not given) [Chloroquine] (100 nM)	94.5%	103%	46%	71.1%	103%	100%	103%	88.6%	98.8%	88.3%	102%	93.7%	99.9%	96.7%	102%	92.9%	103%	91.5%	91.7%
CC(C)(C)c1nc(-c2cccc(NS(=O)(=O)c3c(F)cccc3F)c2F)c(-c2ccnc(N)n2)s1 [Dabrafenib] (0.25 nM)	103%	106%	98.8%	109%	101%	104%	109%	116%	98.9%	108%	101%	109%	98.9%	104%	104%	101%	108%	104%	99.7%
CN[C@@H](C)C(=O)N[C@H]1CN(C(=O)CC(C)C)CC[C@H]2CC[C@@H](C(=O)NC(c3ccccc3)c3ccccc3)N2C1=O [AT-406] (1 nM)	96.8%	101%	104%	125%	108%	101%	106%	98.3%	98.4%	105%	95.1%	108%	101%	98.3%	99.9%	98.2%	109%	103%	98.3%
CC(C)n1cnc2c(NCCc3ccc(O)cc3)nc(-c3csc4ccccc34)nc21 [StemRegenin 1] (10 nM)	96.9%	96.3%	79.5%	68.8%	96.1%	102%	92.2%	109%	97.4%	98.3%	109%	105%	105%	97.5%	99.6%	100%	106%	103%	97.3%
Cn1cc(C2=C(c3cn(C4CCN(Cc5ccccn5)CC4)c4ccccc34)C(=O)NC2=O)c2ccccc21 [Enzastaurin] (10 nM)	107%	95.5%	96.3%	92.2%	107%	104%	92.4%	96.2%	92.7%	104%	100%	106%	99.6%	104%	99.4%	103%	103%	107%	96.5%
CCn1c(C(=O)N(C2CC2)C2CC2)cc2c3c(ncn3C)c(Nc3cc(C)n(C)n3)nc21 (1 nM)	105%	105%	96.7%	135%	97.9%	102%	103%	97.4%	94.4%	102%	98%	102%	92.6%	106%	99.6%	99.7%	100%	89.3%	100%
C=CCN(/C=C1/C(=O)O[C@H](COC)[C@@]2(C)C1=C(O)C(=O)C1=C2[C@H](OC(C)=O)C[C@]2(C)C(=O)CC[C@@H]12)CC=C [Sonolisib] (1 nM)	103%	101%	116%	75.2%	102%	107%	103%	110%	107%	109%	105%	108%	107%	109%	95.6%	103%	102%	119%	104%
Cc1nc(C(=O)NCC(=O)O)c(O)c2ccc(Oc3ccccc3)cc12 [FG-4592] (1 nM)	98.9%	102%	100%	89.8%	96.2%	102%	104%	102%	98.5%	111%	103%	111%	94.7%	101%	106%	103%	108%	109%	98.4%
